Counter-ions that a name gives are not always drawn.
What was measured:
Assay in all cases: biochemical
[1] = target: T1, α-1A adrenoreceptor (rat submaxillary gland) (Rattus norvegicus, UniProt P43140); type: binding; conditions: [3H]-prazosin radioligand; rat submaxillary gland membranes; read-out: Radioligand Binding (Ki, nM) 1A (Rat)
T1 sequence (P43140 1-466): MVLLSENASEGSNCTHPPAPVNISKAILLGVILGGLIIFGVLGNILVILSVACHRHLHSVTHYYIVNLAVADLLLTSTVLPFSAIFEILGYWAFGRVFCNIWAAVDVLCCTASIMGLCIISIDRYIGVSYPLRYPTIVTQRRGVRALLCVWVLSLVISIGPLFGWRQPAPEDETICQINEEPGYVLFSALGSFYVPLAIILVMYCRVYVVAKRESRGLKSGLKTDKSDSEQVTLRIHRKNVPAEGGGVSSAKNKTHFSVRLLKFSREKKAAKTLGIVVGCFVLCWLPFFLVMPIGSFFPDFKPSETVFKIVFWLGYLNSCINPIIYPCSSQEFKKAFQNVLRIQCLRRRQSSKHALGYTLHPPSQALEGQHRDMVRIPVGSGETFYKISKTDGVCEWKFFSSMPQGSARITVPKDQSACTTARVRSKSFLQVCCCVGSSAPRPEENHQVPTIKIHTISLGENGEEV
Method in brief: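 Radioligand binding to α-1A sites in membrane homogenates of rat submaxillary gland, run after Greengrass and Bremner. Bound radioactivity counted by liquid scintillation.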

α-1a adrenoreceptor = target: T2, α-1a adrenoreceptor (Bos taurus, UniProt P18130); type: binding, bovine; conditions: [3H]-prazosin radioligand; cloned receptor in LTK cell membranes; read-out: Radioligand Binding (Ki, nM) 1a (Bovine)
T2 sequence (P18130 1-466): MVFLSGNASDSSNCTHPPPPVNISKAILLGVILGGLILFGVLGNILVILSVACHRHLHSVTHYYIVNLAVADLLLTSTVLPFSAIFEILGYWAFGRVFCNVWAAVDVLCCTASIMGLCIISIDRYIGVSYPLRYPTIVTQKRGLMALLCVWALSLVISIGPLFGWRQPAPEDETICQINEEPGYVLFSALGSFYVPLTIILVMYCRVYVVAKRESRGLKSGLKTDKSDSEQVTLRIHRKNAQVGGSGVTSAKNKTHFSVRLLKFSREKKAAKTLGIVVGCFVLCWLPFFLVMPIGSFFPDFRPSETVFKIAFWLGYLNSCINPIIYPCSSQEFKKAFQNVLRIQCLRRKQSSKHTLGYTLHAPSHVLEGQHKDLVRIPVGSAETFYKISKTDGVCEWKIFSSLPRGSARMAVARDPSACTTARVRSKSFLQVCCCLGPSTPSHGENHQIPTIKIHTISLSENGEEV
Method in brief: (§1)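 Cloned α-1a, α-1b and α-1d adrenoreceptors stably expressed in mouse LTK fibroblasts; membranes prepared in 50 mM Tris-HCl, pH 7.4. Radioligand binding per Greengrass and Bremner method, scintillation counting. The α-1A subtype used rat submaxillary gland membranes.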

α-1d adrenoreceptor = target: T3, α-1d adrenoreceptor (Rattus norvegicus, UniProt P23944); type: binding; conditions: [3H]-prazosin radioligand; cloned receptor in LTK cell membranes; read-out: Radioligand Binding (Ki, nM) 1d (Rat)
T3 sequence (P23944 1-561): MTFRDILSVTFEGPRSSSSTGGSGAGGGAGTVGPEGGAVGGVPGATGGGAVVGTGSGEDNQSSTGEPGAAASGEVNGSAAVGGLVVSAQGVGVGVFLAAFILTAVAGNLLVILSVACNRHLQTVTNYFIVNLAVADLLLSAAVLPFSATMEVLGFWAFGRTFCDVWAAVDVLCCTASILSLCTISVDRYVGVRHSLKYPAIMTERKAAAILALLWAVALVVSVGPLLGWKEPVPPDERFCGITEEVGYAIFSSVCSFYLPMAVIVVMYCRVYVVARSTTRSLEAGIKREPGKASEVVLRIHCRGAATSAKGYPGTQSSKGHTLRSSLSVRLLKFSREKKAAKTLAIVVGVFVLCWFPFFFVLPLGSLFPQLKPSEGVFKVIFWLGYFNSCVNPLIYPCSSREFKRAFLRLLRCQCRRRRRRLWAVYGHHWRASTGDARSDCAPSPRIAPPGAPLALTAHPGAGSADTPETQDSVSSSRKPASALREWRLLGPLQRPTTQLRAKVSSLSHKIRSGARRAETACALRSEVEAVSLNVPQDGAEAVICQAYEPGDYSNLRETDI
Method in brief: as §1

Compound | Ki [1] [nM] | Ki (α-1a adrenoreceptor) [nM] | Ki (α-1d adrenoreceptor) [nM]
COc1cccc2c1[C@@H]1CN(CCCCn3c(=O)[nH]c4c(sc5nc(-c6ccccc6)cnc54)c3=O)C[C@@H]1CO2 [Example 40, 3-[4-((3aR,9bR)-cis-9-Methoxy-1,2,3,3a,4,9b-hexahydro-[1]-benzopyrano[3,4-c]pyrrol-2-yl)butyl]-7-phenyl-pyrazino[2',3':4,5]thieno[3,2-d]pyrimidine-2,4(1H,3H)-dione hydrochloride] | 22.8 | 3.02 | 7.12
COc1cccc2c1[C@@H]1CN(CCCCn3c(=O)[nH]c4c(sc5ccncc54)c3=O)C[C@H]1CO2 [Example 41, 3-[4-((3aS,9bR)-trans-9-Methoxy-1,2,3,3a,4,9b-hexahydro-[1]-benzopyrano[3,4-c]pyrrol-2-yl)butyl]-pyrido[3',4':4,5]thieno[3,2-d]pyrimidine-2,4(1H,3H)-dione dihydrochloride] | 0.069 | 0.031 | 0.041
COc1cccc2c1[C@@H]1CN(CCCCn3c(=O)[nH]c4c(sc5cnccc54)c3=O)C[C@H]1CO2 [Example 42, 3-[4-((3aS,9bR)-trans-9-Methoxy-1,2,3,3a,4,9b-hexahydro-[1]-benzopyrano[3,4-c]pyrrol-2-yl)butyl]-pyrido[4',3':4,5]thieno[3,2-d]pyrimidine-2,4(1H,3H)-dione dihydrochloride] | 0.073 | 0.028 | 0.066
COc1cccc2c1[C@@H]1CN(CCCCn3c(=O)[nH]c4c(sc5ncccc54)c3=O)C[C@H]1CO2 [Example 44, 3-[4-((3aS,9bR)-trans-9-Methoxy-1,2,3,3a,4,9b-hexahydro-[1]-benzopyrano[3,4-c]pyrrol-2-yl)butyl]-pyrido[3',2':4,5]thieno[3,2-d]pyrimidine-2,4(1H,3H)-dione hydrochloride] | 0.043 | 0.043 | 0.081
COc1cccc2c1[C@@H]1CN(CCCCn3c(=O)[nH]c4c(sc5nc(C)ccc54)c3=O)C[C@H]1CO2 [Example 45, 3-[4-((3aS,9bR)-trans-9-Methoxy-1,2,3,3a,4,9b-hexahydro-[1]-benzopyrano[3,4-c]pyrrol-2-yl)butyl]-7-methyl-pyrido[3',2':4,5]thieno[3,2-d]pyrimidine-2,4(1H,3H)-dione hydrochloride] | 0.125 | 0.066 | 0.104
COc1ccc2c(n1)sc1c(=O)n(CCCCN3C[C@H]4COc5cccc(OC)c5[C@@H]4C3)c(=O)[nH]c12 [Example 46, 3-[4-((3aS,9bR)-trans-9-Methoxy-1,2,3,3a,4,9b-hexahydro-[1]-benzopyrano[3,4-c]pyrrol-2-yl)butyl]-7-methoxy-pyrido[3',2':4,5]thieno[3,2-d]pyrimidine-2,4(1H,3H)-dione hydrochloride] | 0.353 | 0.033 | 0.114
COc1cccc2c1[C@@H]1CN(CCCCn3c(=O)[nH]c4c(sc5nc(Cl)ccc54)c3=O)C[C@H]1CO2 [Example 47, 3-[4-((3aS,9bR)-trans-9-Methoxy-1,2,3,3a,4,9b-hexahydro-[1]-benzopyrano[3,4-c]pyrrol-2-yl)butyl]-7-chloro-pyrido[3',2':4,5]thieno[3,2-d]pyrimidine-2,4(1H,3H)-dione hydrochloride] | 0.245 | 0.038 | 0.189
COc1cccc2c1[C@@H]1CN(CCCCn3c(=O)[nH]c4c(sc5ccnc(Cl)c54)c3=O)C[C@@H]1CO2 [Example 48, 3-[4-((3aR,9bR)-cis-9-Methoxy-1,2,3,3a,4,9b-hexahydro-[1]-benzopyrano[3,4-c]pyrrol-2-yl)butyl]-9-chloro-pyrido[3',4';4,5]thieno[3,2-d]pyrimidine-2,4(1H,3H)-dione hydrochloride] | 0.475 | 0.048 | 0.467
COc1cccc2c1[C@@H]1CN(CCCCn3c(=O)[nH]c4c(sc5ccnc(OC)c54)c3=O)C[C@H]1CO2 [Example 49, 3-[4-((3aS,9bR)-trans-9-Methoxy-1,2,3,3a,4,9b-hexahydro-[1]-benzopyrano[3,4-c]pyrrol-2-yl)butyl]-9-methoxy-pyrido[3',4':4,5]thieno[3,2-d]pyrimidine-2,4(1H,3H)-dione fumarate] | 0.037 | 0.007 | 0.019
COc1cccc2c1[C@@H]1CN(CCCCn3c(=O)[nH]c4c(sc5ncc(-c6ccccc6)nc54)c3=O)C[C@H]1CO2 [Example 50, 3-[4-((3aS,9bR)-trans-9-Methoxy-1,2,3,3a,4,9b-hexahydro-[1]-benzopyrano[3,4-c]pyrrol-2-yl)butyl]-8-phenyl-pyrazino[2',3':4,5]thieno[3,2-d]pyrimidine-2,4(1H,3H)-dione hydrochloride] | 1.93 | 0.335 | 0.391
COc1cccc2c1[C@@H]1CN(CCCCn3c(=O)[nH]c4c(sc5ccc(OC(C)C)nc54)c3=O)C[C@H]1CO2 [Example 51, 3-[4-((3aS,9bR)-trans-9-Methoxy-1,2,3,3a,4,9b-hexahydro-[1]-benzopyrano[3,4-c]pyrrol-2-yl)butyl]-8-isopropoxy-pyrido[2',3':4,5]thieno[3,2-d]pyrimidine-2,4(1H,3H)-dione hydrochloride] | 1.19 | 0.064 | 0.371
COc1cccc2c1[C@@H]1CN(CCCCn3c(=O)[nH]c4c(sc5c(Cl)nccc54)c3=O)C[C@@H]1CO2 [Example 53, 3-[4-((3aR,9bR)-cis-9-Methoxy-1,2,3,3a,4,9b-hexahydro-[1]-benzopyrano[3,4-c]pyrrol-2-yl)butyl]-6-chloro-pyrido[4',3':4,5]thieno[3,2-d]pyrimidine-2,4(1H,3H)-dione] | 0.872 | 0.037 | 0.664
COc1cccc2c1[C@@H]1CN(CCCCn3c(=O)[nH]c4c(sc5c(Cl)nccc54)c3=O)C[C@H]1CO2 [Example 54, 3-[4-((3aS,9bR)-trans-9-Methoxy-1,2,3,3a,4,9b-hexahydro-[1]-benzopyrano[3,4-c]pyrrol-2-yl)butyl]-6-chloro-pyrido[4',3':4,5]thieno[3,2-d]pyrimidine-2,4(1H,3H)-dione] | 0.077 | 0.187 | 0.173
COc1cccc2c1[C@@H]1CCN(CCCCn3c(=O)[nH]c4c(sc5cccnc54)c3=O)C[C@H]1CO2 [Example 95, 3-[4-((4aS,10bR)-trans-10-Methoxy-1,3,4,4a,5,10b-hexahydro-2H-[1]-benzopyrano[3,4-c]pyrido-3-yl)butyl]-pyrido[2',3':4,5]thieno[3,2-d]pyrimidine-2.4(1H,3H)-dione dihydrochloride] | 8.83 | 1.8 | 23
COc1cccc2c1[C@@H]1CCN(CCCCn3c(=O)[nH]c4c(sc5ncc(Cl)nc54)c3=O)C[C@H]1CO2 [Example 97, 3-[4-((4aS,10bR)-trans-10-Methoxy-1,3,4,4a,5,10b-hexahydro-2H-[1]-benzopyrano[3,4-c]pyrido-3-yl)butyl]-8-chloro-pyrazino[2',3':4,5]thieno[3,2-d]pyrimidine-2,4(1H,3H)-dione dihydrochloride] | 0.892 | 0.097 | 0.247

Reference: patent EP0942911B1, “BENZOPYRANOPYRROLE AND BENZOPYRANOPYRIDINE ALPHA-1 ADRENERGIC COMPOUNDS” (Abbott Laboratories, priority 1996, dated 1998)
